Like-named read-outs stand apart in the source and are kept apart here.
Tests used:
Format in all cases: biochemical
[1] = target: T1, Itk (Homo sapiens, UniProt Q08881); assay: Kinase inhibition assay (33P transfer), Itk; settings: read-out: Itk-1
T1 construct: Kinases are expressed as either kinase domains or full length constructs; made in house
T1 sequence (Q08881 1-620): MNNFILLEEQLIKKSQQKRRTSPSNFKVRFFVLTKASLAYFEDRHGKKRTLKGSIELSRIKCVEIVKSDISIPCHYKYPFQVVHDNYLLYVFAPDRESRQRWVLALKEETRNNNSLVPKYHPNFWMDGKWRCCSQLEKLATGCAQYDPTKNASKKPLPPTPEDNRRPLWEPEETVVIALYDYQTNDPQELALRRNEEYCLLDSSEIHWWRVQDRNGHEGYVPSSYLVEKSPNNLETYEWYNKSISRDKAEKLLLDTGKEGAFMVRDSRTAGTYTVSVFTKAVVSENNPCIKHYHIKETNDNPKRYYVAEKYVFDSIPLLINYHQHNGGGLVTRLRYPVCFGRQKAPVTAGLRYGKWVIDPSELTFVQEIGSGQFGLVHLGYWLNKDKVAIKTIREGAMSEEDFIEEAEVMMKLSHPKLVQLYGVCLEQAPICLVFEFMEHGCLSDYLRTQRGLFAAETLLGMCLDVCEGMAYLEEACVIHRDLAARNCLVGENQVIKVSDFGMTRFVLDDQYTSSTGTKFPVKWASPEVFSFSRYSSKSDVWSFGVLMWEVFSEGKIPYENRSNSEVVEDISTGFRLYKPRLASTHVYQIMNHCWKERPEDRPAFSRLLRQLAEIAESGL
Summary of the method: (§1)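 Radiometric format: recombinant tagged kinase (catalytic domain or whole protein, sometimes combined with regulatory polypeptides) phosphorylates immobilised poly(Glu,Tyr) 4:1 or poly(Arg,Ser) 3:1 using [33P]ATP. Wells are washed in 0.5% phosphoric acid, then counted. IC50 is taken where substrate labelling falls by half.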

[2] = target: T2, Tek (Homo sapiens, UniProt Q02763); assay: Kinase inhibition assay (33P transfer), Tek; settings: read-out: Tek-1
T2 construct: Kinases are expressed as either kinase domains or full length constructs; made in house
Source text: The inhibitor compounds described herein are screened in the following manner. Kinases suitable for use in the following protocol to determine kinase activity of the compounds described herein include, -but are not limited to: Lck, Lyn, Src, Fyn, Syk, Zap-70, Itk, Tec, Btk, EGFR, ErbB2, Kdr, Flt-1, Flt-3, Tek, c-Met, InsR, and AKT.
Kinases are expressed as either kinase domains or full length constructs fused to glutathione S-transferase (GST) or polyHistidine tagged fusion proteins in either E. colior Baculovirus-High Five expression systems. They are purified to near homogeneity by affinity chromatography essentially as previously described (Lehr et al., 1996; Gish et al., 1995). In some instances, kinases are co-expressed or mixed with purified or partially purified regulatory polypeptides prior to measurement of activity.
Kinase activity and inhibition are measured essentially by established protocols (Braunwalder et al., 1996). Briefly, The transfer of ^33PO4 from ATP to the synthetic substrates poly(Glu, Tyr) 4:1 or poly(Arg, Ser) 3:1 attached to the bioactive surface of microtiter plates serves as the basis to evaluate enzyme activity. After an incubation period, the amount of phosphate transferred is measured by first washing the plate with 0.5% phosphoric acid, adding liquid scintillant, and then counting in a liquid scintillation detector. The IC50 is determined by the concentration of compound that causes a 50% reduction in the amount of […] incorporated onto the substrate bound to the plate.

[3] = target: T3, AKT (Homo sapiens, UniProt Q9Y243); assay: Kinase inhibition assay (33P transfer), AKT; settings: Table 2, kinase inhibition class; read-out: AKT3-1
T3 construct: Kinases are expressed as either kinase domains or full length constructs; made in house
Summary of the method: (§2)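 GST/His-tagged kinase (domain or full length; E. coli or baculovirus) + [33P]ATP on plates coated with poly(Glu,Tyr) 4:1 or poly(Arg,Ser) 3:1; incubate, wash 0.5% H3PO4, add scintillant, count.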

[4] = target: T4, EGFR (Homo sapiens, UniProt P00533); assay: Kinase inhibition assay (33P transfer), EGFR; settings: Table 2, kinase inhibition class; read-out: EGFR-1
T4 construct: Kinases are expressed as either kinase domains or full length constructs; made in house
Summary of the method: as §1

[5] = target: T5, Lck (Homo sapiens, UniProt P06239); assay: Kinase inhibition assay (33P transfer), Lck; settings: read-out: Lck-1
T5 construct: Kinases are expressed as either kinase domains or full length constructs; made in house
Summary of the method: as §2

[6] = target: T6, c-Met (Homo sapiens, UniProt P08581); assay: Kinase inhibition assay (33P transfer), c-Met; settings: Table 2, kinase inhibition class; read-out: Met-1
T6 construct: Kinases are expressed as either kinase domains or full length constructs; made in house
Summary of the method: as §1

[7] = target: T7, Zap-70 (Homo sapiens, UniProt P43403); assay: Kinase inhibition assay (33P transfer), Zap-70; settings: read-out: Zap-1
T7 construct: Kinases are expressed as either kinase domains or full length constructs; made in house
T7 sequence (P43403 1-619): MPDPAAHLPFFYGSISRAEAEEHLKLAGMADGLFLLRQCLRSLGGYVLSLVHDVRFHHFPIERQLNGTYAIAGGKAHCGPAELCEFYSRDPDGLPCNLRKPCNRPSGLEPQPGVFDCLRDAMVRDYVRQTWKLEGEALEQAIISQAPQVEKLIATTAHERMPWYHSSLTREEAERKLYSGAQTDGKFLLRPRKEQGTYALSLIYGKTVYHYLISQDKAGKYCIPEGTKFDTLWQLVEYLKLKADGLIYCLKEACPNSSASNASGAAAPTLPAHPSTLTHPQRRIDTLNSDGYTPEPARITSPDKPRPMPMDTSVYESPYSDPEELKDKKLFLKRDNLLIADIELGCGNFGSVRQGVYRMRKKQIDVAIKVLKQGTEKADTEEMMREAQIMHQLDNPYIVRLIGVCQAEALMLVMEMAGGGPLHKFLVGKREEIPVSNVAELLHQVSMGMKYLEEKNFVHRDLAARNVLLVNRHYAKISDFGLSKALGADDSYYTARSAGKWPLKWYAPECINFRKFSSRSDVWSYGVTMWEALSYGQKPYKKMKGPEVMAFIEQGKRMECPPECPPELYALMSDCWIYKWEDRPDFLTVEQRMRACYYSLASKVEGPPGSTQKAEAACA
Summary of the method: as §2

[8] = target: T8, Kdr (Homo sapiens, UniProt P35968); assay: Kinase inhibition assay (33P transfer), Kdr; settings: read-out: KDR-1
T8 construct: Kinases are expressed as either kinase domains or full length constructs; made in house
Summary of the method: as §2

T6 sequence (P08581 25-1390): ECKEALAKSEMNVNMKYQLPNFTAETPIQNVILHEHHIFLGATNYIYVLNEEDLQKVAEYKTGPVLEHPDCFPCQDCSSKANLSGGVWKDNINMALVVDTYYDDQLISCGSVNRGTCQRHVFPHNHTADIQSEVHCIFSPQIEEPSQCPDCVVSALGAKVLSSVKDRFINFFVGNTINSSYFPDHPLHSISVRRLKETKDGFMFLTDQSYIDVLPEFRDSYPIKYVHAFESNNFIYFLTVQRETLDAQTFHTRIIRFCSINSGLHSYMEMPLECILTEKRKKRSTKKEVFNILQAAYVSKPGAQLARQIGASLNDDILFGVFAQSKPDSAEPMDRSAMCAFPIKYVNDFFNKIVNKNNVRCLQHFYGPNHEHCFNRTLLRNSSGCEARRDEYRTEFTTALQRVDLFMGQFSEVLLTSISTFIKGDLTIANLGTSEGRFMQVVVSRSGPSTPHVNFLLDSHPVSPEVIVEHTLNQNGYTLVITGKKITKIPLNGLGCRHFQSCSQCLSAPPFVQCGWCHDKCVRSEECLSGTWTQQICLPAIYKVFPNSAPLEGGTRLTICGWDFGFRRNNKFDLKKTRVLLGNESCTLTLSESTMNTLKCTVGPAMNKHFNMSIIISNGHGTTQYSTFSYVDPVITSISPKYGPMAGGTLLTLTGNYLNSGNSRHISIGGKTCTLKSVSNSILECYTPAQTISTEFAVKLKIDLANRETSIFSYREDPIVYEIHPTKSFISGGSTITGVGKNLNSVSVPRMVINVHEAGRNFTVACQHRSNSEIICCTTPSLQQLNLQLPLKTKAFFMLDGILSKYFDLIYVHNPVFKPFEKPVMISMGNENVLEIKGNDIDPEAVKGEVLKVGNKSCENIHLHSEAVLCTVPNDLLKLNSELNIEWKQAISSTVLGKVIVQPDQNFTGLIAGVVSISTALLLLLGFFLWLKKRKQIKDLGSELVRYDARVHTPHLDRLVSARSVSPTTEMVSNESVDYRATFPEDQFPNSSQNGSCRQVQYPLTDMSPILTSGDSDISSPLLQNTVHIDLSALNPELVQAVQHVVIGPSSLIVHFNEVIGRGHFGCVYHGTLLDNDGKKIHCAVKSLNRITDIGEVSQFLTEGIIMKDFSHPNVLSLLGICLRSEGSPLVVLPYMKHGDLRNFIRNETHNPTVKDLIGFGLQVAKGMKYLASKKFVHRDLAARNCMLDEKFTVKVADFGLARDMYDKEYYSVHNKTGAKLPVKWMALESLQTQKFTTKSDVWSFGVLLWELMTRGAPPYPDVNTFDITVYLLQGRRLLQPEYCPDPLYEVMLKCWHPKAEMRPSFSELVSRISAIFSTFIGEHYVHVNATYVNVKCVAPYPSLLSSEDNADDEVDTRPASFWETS
T2 sequence (Q02763 23-1124, species assumed): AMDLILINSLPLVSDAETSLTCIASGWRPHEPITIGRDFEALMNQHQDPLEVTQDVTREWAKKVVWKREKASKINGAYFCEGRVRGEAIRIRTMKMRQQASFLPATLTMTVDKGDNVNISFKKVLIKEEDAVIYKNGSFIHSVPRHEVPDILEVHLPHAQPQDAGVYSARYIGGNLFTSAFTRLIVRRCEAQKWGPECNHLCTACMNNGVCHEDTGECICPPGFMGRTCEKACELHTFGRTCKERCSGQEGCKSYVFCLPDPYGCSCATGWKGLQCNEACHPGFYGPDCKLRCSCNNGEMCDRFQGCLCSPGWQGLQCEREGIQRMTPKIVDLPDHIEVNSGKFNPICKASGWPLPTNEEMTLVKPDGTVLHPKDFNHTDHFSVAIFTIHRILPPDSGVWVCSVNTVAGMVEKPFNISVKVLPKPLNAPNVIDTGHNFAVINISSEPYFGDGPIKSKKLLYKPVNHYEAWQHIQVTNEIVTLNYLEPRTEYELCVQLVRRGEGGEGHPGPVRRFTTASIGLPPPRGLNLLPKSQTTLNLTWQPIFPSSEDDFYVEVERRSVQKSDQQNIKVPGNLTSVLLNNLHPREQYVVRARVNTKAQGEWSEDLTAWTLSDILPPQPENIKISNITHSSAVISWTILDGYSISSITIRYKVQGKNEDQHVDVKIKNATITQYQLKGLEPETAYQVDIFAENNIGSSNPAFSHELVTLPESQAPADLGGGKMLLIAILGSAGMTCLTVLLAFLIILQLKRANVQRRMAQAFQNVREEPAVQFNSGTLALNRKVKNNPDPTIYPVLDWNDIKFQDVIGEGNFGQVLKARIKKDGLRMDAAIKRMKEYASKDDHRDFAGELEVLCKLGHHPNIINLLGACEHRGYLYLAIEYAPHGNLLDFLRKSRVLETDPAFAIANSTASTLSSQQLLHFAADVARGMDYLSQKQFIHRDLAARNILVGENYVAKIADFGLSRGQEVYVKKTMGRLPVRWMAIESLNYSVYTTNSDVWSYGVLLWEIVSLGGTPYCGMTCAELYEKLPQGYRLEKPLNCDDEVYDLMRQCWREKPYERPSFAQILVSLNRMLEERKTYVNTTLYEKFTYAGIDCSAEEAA
T8 sequence (P35968 20-1356, species assumed): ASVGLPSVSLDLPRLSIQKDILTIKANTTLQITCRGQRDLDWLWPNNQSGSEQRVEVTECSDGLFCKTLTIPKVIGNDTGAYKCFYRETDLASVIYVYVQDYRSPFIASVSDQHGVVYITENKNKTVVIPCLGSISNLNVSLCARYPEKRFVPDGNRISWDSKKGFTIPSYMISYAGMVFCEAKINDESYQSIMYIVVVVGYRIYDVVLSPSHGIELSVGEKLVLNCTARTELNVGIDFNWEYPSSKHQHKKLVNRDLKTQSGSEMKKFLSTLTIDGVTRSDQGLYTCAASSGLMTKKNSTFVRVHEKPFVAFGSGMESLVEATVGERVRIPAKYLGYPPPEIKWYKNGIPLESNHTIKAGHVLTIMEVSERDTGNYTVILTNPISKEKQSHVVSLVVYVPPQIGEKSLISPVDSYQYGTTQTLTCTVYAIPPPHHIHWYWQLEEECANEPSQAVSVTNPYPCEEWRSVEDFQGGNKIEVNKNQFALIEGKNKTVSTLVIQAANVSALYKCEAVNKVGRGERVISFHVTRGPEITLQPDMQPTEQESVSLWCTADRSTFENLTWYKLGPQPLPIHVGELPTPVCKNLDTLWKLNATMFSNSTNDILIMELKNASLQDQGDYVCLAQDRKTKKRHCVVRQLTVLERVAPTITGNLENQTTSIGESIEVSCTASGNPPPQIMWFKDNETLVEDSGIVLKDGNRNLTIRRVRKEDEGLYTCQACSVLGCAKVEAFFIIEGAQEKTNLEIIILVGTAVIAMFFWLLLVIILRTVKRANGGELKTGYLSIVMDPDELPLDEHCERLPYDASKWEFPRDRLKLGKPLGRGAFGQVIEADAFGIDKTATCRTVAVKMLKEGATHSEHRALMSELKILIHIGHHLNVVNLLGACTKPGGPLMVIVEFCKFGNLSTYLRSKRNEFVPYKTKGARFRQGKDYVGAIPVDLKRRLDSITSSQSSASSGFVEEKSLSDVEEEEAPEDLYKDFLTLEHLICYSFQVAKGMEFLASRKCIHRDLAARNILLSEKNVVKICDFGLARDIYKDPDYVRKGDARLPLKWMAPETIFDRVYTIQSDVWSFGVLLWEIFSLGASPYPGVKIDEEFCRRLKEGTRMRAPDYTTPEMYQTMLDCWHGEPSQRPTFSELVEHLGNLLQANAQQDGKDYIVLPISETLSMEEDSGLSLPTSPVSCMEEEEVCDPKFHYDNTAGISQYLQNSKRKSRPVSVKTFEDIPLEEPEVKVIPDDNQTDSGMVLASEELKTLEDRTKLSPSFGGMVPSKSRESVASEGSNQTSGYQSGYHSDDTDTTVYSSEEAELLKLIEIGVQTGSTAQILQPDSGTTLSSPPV
T5 sequence (P06239 whole entry, species assumed, the tested form may be a part): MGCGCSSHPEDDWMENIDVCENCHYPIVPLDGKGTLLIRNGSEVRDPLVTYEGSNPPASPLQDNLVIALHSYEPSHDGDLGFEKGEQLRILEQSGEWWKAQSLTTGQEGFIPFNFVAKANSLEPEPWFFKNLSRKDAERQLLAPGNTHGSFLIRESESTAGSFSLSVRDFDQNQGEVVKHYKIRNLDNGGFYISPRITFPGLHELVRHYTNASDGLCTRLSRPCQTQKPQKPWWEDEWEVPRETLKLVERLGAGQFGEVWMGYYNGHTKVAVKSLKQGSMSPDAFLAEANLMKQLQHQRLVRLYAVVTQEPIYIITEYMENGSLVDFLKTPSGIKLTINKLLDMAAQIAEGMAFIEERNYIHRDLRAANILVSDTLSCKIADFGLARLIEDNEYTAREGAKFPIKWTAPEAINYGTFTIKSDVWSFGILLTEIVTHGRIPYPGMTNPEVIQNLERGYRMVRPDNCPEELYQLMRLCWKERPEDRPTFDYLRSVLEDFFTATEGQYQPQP
T3 sequence (Q9Y243 whole entry, the tested form may be a part): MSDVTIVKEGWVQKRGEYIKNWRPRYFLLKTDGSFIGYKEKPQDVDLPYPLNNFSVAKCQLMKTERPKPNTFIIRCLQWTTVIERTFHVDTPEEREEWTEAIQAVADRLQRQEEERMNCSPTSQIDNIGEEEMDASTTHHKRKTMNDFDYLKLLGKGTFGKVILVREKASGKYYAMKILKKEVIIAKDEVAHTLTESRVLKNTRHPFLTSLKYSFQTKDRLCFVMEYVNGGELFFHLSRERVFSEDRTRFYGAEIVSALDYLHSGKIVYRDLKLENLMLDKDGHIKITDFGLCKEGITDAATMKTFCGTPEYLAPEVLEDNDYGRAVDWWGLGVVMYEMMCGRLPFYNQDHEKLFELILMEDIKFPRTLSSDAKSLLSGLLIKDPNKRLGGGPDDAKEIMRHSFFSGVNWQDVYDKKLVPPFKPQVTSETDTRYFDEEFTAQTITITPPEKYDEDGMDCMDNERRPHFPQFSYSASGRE

IC50 [1] [µM]	IC50 [2] [µM]	IC50 [3] [µM]	IC50 [4] [µM]	IC50 [5] [µM]	IC50 [6] [µM]	IC50 [7] [µM]	IC50 [8] [µM]	IC50 ([1]; Table 3) [µM]	IC50 ([5]; Table 3) [µM]	IC50 ([7]; Table 3) [µM]	IC50 ([8]; Table 3) [µM]	SMILES
> 10.2	5.45 to 7.95	> 10.2	> 10.2	7.95 to 10.2	> 10.2	> 10.2	> 10.2					O=c1[nH]c2ccccc2n1-c1ncnc(Nc2cc(C(F)(F)F)cc(C(F)(F)F)c2)n1 [Compound 506]
	6.87 to 10	> 12.9	> 12.9		> 12.9			> 12.9	> 12.9	6.87 to 10	1.15 to 6.87	O=c1[nH]c2ccccc2n1-c1ncnc(Nc2cccc([N+](=O)[O-])c2)n1 [Compound 467]
> 7.71	6 to 7.71	> 7.71	> 7.71	0.685 to 4.11	> 7.71	> 7.71	< 0.685					COc1cc(Nc2ncnc(-n3c(NCc4ccccn4)nc4ccccc43)n2)cc(OCCN2CCOCC2)c1OC [Compound 507]
	5.35 to 7.8	5.35 to 7.8	0.892 to 5.35		> 10			5.35 to 7.8	7.8 to 10	> 10	0.892 to 5.35	CC(C)(C)OC(=O)NCc1ccc(Nc2ncnc(Nc3cc(-c4ccco4)n[nH]3)n2)cc1 [Compound 431]
> 9.27	> 9.27	> 9.27	> 9.27	> 9.27	> 9.27	> 9.27	< 0.824					COc1cc(Nc2ncnc(-n3c(OCc4ccccn4)nc4ccccc43)n2)cc(OC)c1OC [Compound 690]
4.81 to 7.02	> 9.03	> 9.03	> 9.03	> 9.03	> 9.03	> 9.03	< 0.802					COc1cc(Nc2ncnc(-n3c(NCCc4cccnc4)nc4ccccc43)n2)cc(OC)c1OC [Compound 947]
	> 8.04	> 8.04	> 8.04		> 8.04			> 8.04	> 8.04	> 8.04	0.715 to 4.29	COc1cc(Nc2ncnc(-n3c(Nc4cc(OC)c(OC)c(OC)c4)nc4ccccc43)n2)cc(OC)c1OC [Compound 402]
	> 11	> 11	> 11		> 11			> 11	> 11	> 11	0.982 to 5.89	COc1cc(Nc2ncnc(-c3c(O)n(C)c4ccccc34)n2)cc(OC)c1OC [Compound 465]
1.01 to 6.07	8.85 to 11.4	> 11.4	6.07 to 8.85	< 1.01	> 11.4	> 11.4	< 1.01					COc1cc(Nc2ncnc(Nc3ccc(C(C)=O)cc3)n2)cc(OC)c1OC [Compound 698]
1.03 to 6.2	1.03 to 6.2	9.03 to 11.6	1.03 to 6.2	1.03 to 6.2	1.03 to 6.2	1.03 to 6.2	< 1.03					O=C(O)Cc1ccc(Nc2ncnc(Nc3cc(-c4ccccc4)n[nH]3)n2)cc1 [Compound 982]
> 13.5	> 13.5	> 13.5	> 13.5	> 13.5	> 13.5	> 13.5	1.2 to 7.18					COc1ccc(Nc2ncnc(-n3c(N)nc4ccccc43)n2)cn1 [Compound 648]
1.06 to 6.36	> 11.9	> 11.9	< 1.06	1.06 to 6.36	1.06 to 6.36	9.27 to 11.9	< 1.06					O=C(O)Cc1ccc(Nc2ncnc(Nc3cc(-c4ccco4)n[nH]3)n2)cc1 [Compound 984]
> 12.9	6.87 to 10	> 12.9	> 12.9	> 12.9	10 to 12.9	> 12.9	> 12.9					O=c1[nH]c2ccccc2n1-c1ncnc(Nc2ccccc2[N+](=O)[O-])n1 [Compound 493]
	6.18 to 9.01	> 11.6	> 11.6		9.01 to 11.6			> 11.6	9.01 to 11.6	6.18 to 9.01	> 11.6	O=c1[nH]c2ccccc2n1-c1ncnc(Nc2ccc(OC(F)(F)F)cc2)n1 [Compound 462]
	6.94 to 8.92	0.793 to 4.76	0.793 to 4.76		> 8.92			> 8.92	> 8.92	> 8.92	0.793 to 4.76	O=c1[nH]c2ccccc2n1-c1ncnc(Nc2ccc(NS(=O)(=O)c3ccc([N+](=O)[O-])cc3)cc2)n1 [Compound 422]
5.23 to 7.63	7.63 to 9.81	> 9.81	5.23 to 7.63	> 9.81	0.872 to 5.23	> 9.81	0.872 to 5.23					CC(C)(C)OC(=O)NCc1cccc(Nc2ncnc(Nc3cc(-c4ccccc4)n[nH]3)n2)c1 [Compound 986]
> 11.4	> 11.4	> 11.4	> 11.4	> 11.4	> 11.4	> 11.4	> 11.4					COc1cc(Nc2ncnc(Nc3ncnc4[nH]cnc34)n2)cc(OC)c1OC [Compound 696]
1.18 to 7.11	1.18 to 7.11	1.18 to 7.11	1.18 to 7.11	1.18 to 7.11	1.18 to 7.11	1.18 to 7.11	1.18 to 7.11					Nc1nc2ccccc2n1-c1ncnc(Nc2ccc(Cl)cc2)n1 [Compound 478]
	9.42 to 12.1	1.08 to 6.46	1.08 to 6.46		> 12.1			9.42 to 12.1	1.08 to 6.46	> 12.1	< 1.08	O=c1[nH]c2ccccc2n1-c1ncnc(Nc2cccc(-c3cnco3)c2)n1 [Compound 418]
6.68 to 9.74	6.68 to 9.74	> 12.5	> 12.5	6.68 to 9.74	9.74 to 12.5	> 12.5	6.68 to 9.74					CC(C)(C)c1ccc(Nc2ncnc(-n3c(N)nc4ccccc43)n2)cc1 [Compound 525]
